Several values for one entry are separate records, joined by “and”; a condition that tells them apart may be missing. Equal entries are not always repeated. Where two headings read alike, the source gives them in different places.
Experiments:
[1] = Mouse Liver Microsome stability assay; type: in vitro ADME; conditions: mouse liver microsomes
[2] = Pharmacokinetic study, IP administration in male CD-1 mice; type: in vivo
[3] = Pharmacokinetic study, IV administration in male CD-1 mice; type: in vivo
[4] = IP 2.0 mg/kg, individual mice M1-M3
[5] = IP 2.0 mg/kg, individual mice M1-M3, 2 mg/kg
[6] = IP 2.0 mg/kg, plasma, individual mice M1-M3, 2 mg/kg
[7] = male, CD-1, mouse, plasma, ip, 2 mg/kg, Mean
[8] = male, CD-1, mouse, plasma, ip, 2 mg/kg, individual mice M1-M3
[9] = IV 2.0 mg/kg, individual mice M1-M3, 2 mg/kg
[10] = IV 2.0 mg/kg, plasma, individual mice M1-M3, 2 mg/kg
[11] = male, CD-1, mouse, plasma, iv, 2 mg/kg, Mean
[12] = male, CD-1, mouse, plasma, iv, 2 mg/kg, individual mice M1-M3

Structure (SMILES): FC(F)Oc1ccc(-c2ccccc2)cc1Nc1ncnc2[nH]nc(-c3cc[nH]n3)c12 [compound 8179]
- WuXi Microsomal stability (Mouse Extraction Ratio) [1]: 0.6

Structure (SMILES): COc1ccc(-c2cnccn2)cc1Nc1ncnc2[nH]nc(-c3cc[nH]n3)c12 [compound 8184]
- WuXi Microsomal stability (Mouse Extraction Ratio) [1]: 0.9

Structure (SMILES): COc1cc(C)c(-c2ccccc2)cc1Nc1ncnc2[nH]nc(-c3cc[nH]n3)c12 [compound 8134]
- WuXi Microsomal stability (Mouse Extraction Ratio) [1]: 0.7

Structure (SMILES): COc1ccc(-c2ccc(F)cc2)cc1Nc1ncnc2[nH]nc(-c3cc[nH]n3)c12 [8168C]
- Plasma Concentration at 5.00 h ([2]; IP 2.0 mg/kg, Mean): BLQ
- Plasma Concentration at 8.00 h ([2]; IP 2.0 mg/kg, Mean): BLQ
- Plasma Concentration at 24.00 h ([2]; IP 2.0 mg/kg, Mean): BLQ
- Plasma Concentration at 8.00 h [2, 4]: BLQ
- Plasma Concentration at 24.00 h [2, 4]: BLQ
- Plasma Concentration at 0.25 h [2, 5]: 306.24 ng/mL and 169.92 ng/mL
- Plasma Concentration at 1.00 h [2, 5]: 69.88 ng/mL and 66.74 ng/mL
- Plasma Concentration at 3.00 h [2, 5]: 9.75 ng/mL and 2.05 ng/mL and BLQ
- Plasma Concentration at 5.00 h [2, 5]: BLQ
- AUCExtra ([2]; IP 2.0 mg/kg, plasma, Mean): 0.96%
- AUC0-inf [2, 6]: 197.83 ng·h/mL
- AUC0-last [2, 6]: 208.92 ng·h/mL and 196.69 ng·h/mL and 104.05 ng·h/mL
- AUCExtra [2, 6]: 1.35% and 0.57%
- AUCall [2, 6]: 208.92 ng·h/mL and 196.69 ng·h/mL and 104.05 ng·h/mL
- Cmax [2, 6]: 306.24 ng/mL and 169.92 ng/mL
- Half-life (T½) [2, 6]: 47.4 min and 22.8 min
- MRT0-last [2, 6]: 63.6 min and 40.2 min and 30 min
- Half-life (T½) ([2]; male, CD-1, mouse, plasma, intraperitoneal, 2 mg/kg, IP 2.0 mg/kg, Mean, read-out: Oral T½ (converted)): 35.4 min
- AUC [2, 7]: 170 ng·h/mL
- AUC(0-t) [2, 7]: 170 ng·h/mL
- concentration at 0.25 h [2, 7]: 228 ng/mL
- concentration at 1 h [2, 7]: 73.9 ng/mL
- concentration at 3 h [2, 7]: 5.9 ng/mL
- AUC0-inf ([2]; male, CD-1, mouse, plasma, ip, 2 mg/kg, Mean, read-out: AUC0-inf): 205 ng·h/mL
- Cmax ([2]; male, CD-1, mouse, plasma, ip, 2 mg/kg, Mean, read-out: Cmax): 228 ng/mL
- MRT last ([2]; male, CD-1, mouse, plasma, ip, 2 mg/kg, Mean, read-out: MRT0-last): 44.4 min
- concentration at 0.25 h [2, 8]: 207 ng/mL
- concentration at 1 h [2, 8]: 85.2 ng/mL
- concentration at 5 h [2, 8]: 2.52 ng/mL
- AUC0-inf ([2]; male, CD-1, mouse, plasma, ip, 2 mg/kg, individual mice M1-M3, read-out: AUC0-inf): 212 ng·h/mL
- Cmax ([2]; male, CD-1, mouse, plasma, ip, 2 mg/kg, individual mice M1-M3, read-out: Cmax): 207 ng/mL
- Tmax ([2]; male, CD-1, mouse, IP 2.0 mg/kg, plasma, individual mice M1-M3): 15 min
- WuXi Microsomal stability (Mouse Extraction Ratio) [1]: 0.4
- Plasma Concentration at 24.00 h ([3]; IV 2.0 mg/kg, Mean): BLQ
- Plasma Concentration at 24.00 h ([3]; IV 2.0 mg/kg, individual mice M1-M3): BLQ
- Plasma Concentration at 0.08 h [3, 9]: 643.79 ng/mL and 668.53 ng/mL
- Plasma Concentration at 0.25 h [3, 9]: 361.85 ng/mL and 533.91 ng/mL
- Plasma Concentration at 1.00 h [3, 9]: 124.19 ng/mL and 132.77 ng/mL
- Plasma Concentration at 3.00 h [3, 9]: 16.88 ng/mL and 24.59 ng/mL
- Plasma Concentration at 5.00 h [3, 9]: 4.53 ng/mL and 8.17 ng/mL and 9.69 ng/mL
- Plasma Concentration at 8.00 h [3, 9]: 1.79 ng/mL and BLQ and 4.14 ng/mL
- AUCExtra ([3]; IV 2.0 mg/kg, plasma, Mean): 1.68%
- AUC0-inf [3, 10]: 451.15 ng·h/mL and 566.58 ng·h/mL
- AUC0-last [3, 10]: 441.82 ng·h/mL and 554.77 ng·h/mL
- AUCExtra [3, 10]: 0.88% and 2.07% and 2.08%
- AUCall [3, 10]: 441.82 ng·h/mL and 554.77 ng·h/mL
- C0 [3, 10]: 857.24 ng/mL and 747.58 ng/mL
- Cl [3, 10]: 73.89 mL/min/kg and 58.83 mL/min/kg
- MRT0-last [3, 10]: 52.2 min and 65.4 min
- T½ [3, 10]: 102 min and 47.4 min and 119 min
- Vd [3, 10]: 5.06 L/kg and 10.07 L/kg
- AUC [3, 11]: 497 ng·h/mL
- AUC(0-t) [3, 11]: 497 ng·h/mL
- clearance [3, 11]: 66.5 mL/min/kg
- concentration at 0.08 h [3, 11]: 638 ng/mL
- concentration at 0.25 h [3, 11]: 426 ng/mL
- concentration at 1 h [3, 11]: 146 ng/mL
- concentration at 3 h [3, 11]: 18.6 ng/mL
- concentration at 5 h [3, 11]: 7.46 ng/mL
- concentration at 8 h [3, 11]: 2.97 ng/mL
- AUC0-inf ([3]; male, CD-1, mouse, plasma, iv, 2 mg/kg, Mean, read-out: AUC0-inf): 506 ng·h/mL
- C0 ([3]; male, CD-1, mouse, plasma, iv, 2 mg/kg, Mean, read-out: C0): 786 ng/mL
- MRT last ([3]; male, CD-1, mouse, plasma, iv, 2 mg/kg, Mean, read-out: MRT0-last): 57.6 min
- half-life ([3]; male, CD-1, mouse, plasma, iv, 2 mg/kg, Mean, read-out: T½ (converted)): 89.4 min
- Vd ([3]; male, CD-1, mouse, plasma, iv, 2 mg/kg, Mean, read-out: Vd): 8.32 L/kg
- AUC [3, 12]: 496 ng·h/mL
- AUC(0-t) [3, 12]: 496 ng·h/mL
- clearance [3, 12]: 66.7 mL/min/kg
- concentration at 0.08 h [3, 12]: 601 ng/mL
- concentration at 0.25 h [3, 12]: 382 ng/mL
- concentration at 1 h [3, 12]: 181 ng/mL
- concentration at 3 h [3, 12]: 14.3 ng/mL
- AUC0-inf ([3]; male, CD-1, mouse, plasma, iv, 2 mg/kg, individual mice M1-M3, read-out: AUC0-inf): 500 ng·h/mL
- C0 ([3]; male, CD-1, mouse, plasma, iv, 2 mg/kg, individual mice M1-M3, read-out: C0): 754 ng/mL
- MRT last ([3]; male, CD-1, mouse, plasma, iv, 2 mg/kg, individual mice M1-M3, read-out: MRT0-last): 56.4 min
- Vd ([3]; male, CD-1, mouse, plasma, iv, 2 mg/kg, individual mice M1-M3, read-out: Vd): 9.82 L/kg

Source: patent US20190119284A1, “ErbB Inhibitors and Uses Thereof” (The Regents of the University of California, priority 2016, published 2019)
